Assay results published in patent US20180289689A1, “USE OF CCR5 ANTAGONISTS ALONE OR IN COMBINATION THERAPY FOR THE TREATMENT OF CANCER” (RUPRECHT-KARLS-UNIVERSITÄT HEIDELBERG, priority 2014, published 2018).

How the values were obtained:
[1] = tested on: colorectal cancer liver metastases; experiment: Tumor explant model from freshly resected colorectal cancer liver metastases; type: cell-based, human; conditions: FIG. 1
Description: Tumor explant models. Tumor explant models were generated from freshly resected colorectal cancer liver metastases. Explanted tissue specimens were cut into three equal parts, placed in unconditioned medium and either treated with DMSO or Maraviroc (in DMSO) or without any addition. The explants were then harvested and subjected to histological analyses (see FIG. 1) and multiplex protein analysis (see FIG. 3).

[2] = tested on: colorectal cancer patients with hepatic metastases; experiment: MARACON-001 phase I trial, Maraviroc monotherapy; type: in vivo, human; conditions: for Objective response (RECIST)/ other responses: Patient 4, colorectal cancer (metastatic: lung and liver), monotherapy
Description: Clinical trial. A trial in colorectal cancer patients with hepatic metastases was initiated. […] In the trial, patients receive Maraviroc daily for two months. Safety and feasibility are the primary endpoints of this ongoing trial. The trial is being conducted according to the Declaration of Helsinki and relevant International Conference on Harmonization Good Clinical Practice guidelines and with approval from the ethics committee of the University of Heidelberg. […] All provided written informed consent before participating in this study. The overall workflow of the trial is depicted in FIG. 2.
Assessment of proliferation in histology samples. Briefly cryo sections were fixed with 4% paraformaldehyde (PFA, Sigma Aldrich, Germany). The sections were blocked with 10% normal goat serum (Vector, USA). […] The slides were incubated with a secondary antibody (rabbit-anti-mouse IgG, Bond Polymer Refine Detection System, Leica, Germany) for 8 minutes at room temperature. Further amplification of the signal was achieved through incubation with a third antibody, conjugated with horse radish peroxidase and coupled to dextrane molecules in large numbers, for 8 minutes at room temperature (Poly-HRP-mouse-anti-rabbit IgG, Bond Polymer Refine Detection System, Leica, Germany). The antigen detection was performed by a color reaction with 3,3-di-amino-benzidine (DAB chromogen, Bond Polymer Refine Detection System, Leica, Germany). The sections were counterstained with hematoxylin (Bond Polymer Refine Detection System, Leica, Germany) and mounted with Aquatex (Merck, Germany). Assessment was performed with the Visiomorph Software Package (Visiopharm, Denmark) to quantify positive tumor cells.

## Cc1nnc(C(C)C)n1[C@@H]1C[C@H]2CC[C@@H](C1)N2CC[C@H](NC(=O)C1CCC(F)(F)CC1)c1ccccc1 [Maraviroc, 4,4-difluoro-N-{(1S)-3-[3-(3-isopropyl-5-methyl-4H-1,2,4-triazol-4-yl)-8-azabicyclo[3.2.1]oct-8-yl]-1-phenylpropyl}cyclohexanecarboxamide]
[1]; explants treated with Maraviroc (in DMSO)
  tumor cell death upon inhibition of CCR5: clear tumor cell death
[1]; explants treated with Maraviroc
  effects in the adjacent liver: no effects
[1]; treated section vs untreated control section
  histology of treated section (hemalaun counterstaining): Large areas of necrosis and only few remaining tumor cells
[2]; Maraviroc 300 mg/bid, second biopsy after 8-10 days
  tumor cell death in patients (biopsies): tumor cell death
[2]; liver
  Objective response (RECIST)/ other responses: −10% (liver)
[2]; lung
  Objective response (RECIST)/ other responses: −50% (lung),
[2]; before vs after therapy, percentage of necrotic area of reference lesion, FIG. 5
  radiologically measured area of necrosis of liver metastases: increase in necrotic area
[2]; before vs under treatment (8-10 days, second biopsy), FIG. 4
  proliferation activity (Ki67 percentage) of tumor cells: Reductions
[2]; day 0 (pretreatment) vs day 9 of treatment, FIG. 3
  key cytokines for tumor growth, chemotherapy resistance or angiogenesis: Marked Changes
[2]; patients
  tolerability: well-tolerated
[2]; patients, so far
  side effects: does not have significant side effects
